Reference: PubChem BioAssay AID330 (DTP/NCI, 2004)
Values joined by “and” are separate entries in the source; they are usually repeats but may differ in a detail not shown here. Equal values may be shown once. Inconclusive results and toxic doses are left out. How the source made its calls: active means survival T/C of 150% or more; inactive means T/C below 125% in these data.

System: P388 leukemia ip, CD2F1 mice, survival T/C
Assay: NCI In Vivo Anticancer Drug Screen. Data for tumor model P388 Leukemia (intraperitoneal) in CD2F1 (CDF1) mice
Details: endpoint: median survival time, higher = longer survival
Method in brief: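 Mice carrying the transplanted tumor received test compound or vehicle. Survival was recorded in each group, and the value is the treated-group measurement divided by that of the vehicle-treated control group.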

[1] = dose: 50.0 mg/kg/injection, schedule: Q01DX005 (ip), vehicle: Klucel (hydroxypropylcellulose) (HPC)
[2] = dose: 60.0 mg/kg/injection, schedule: Q01DX005 (ip), vehicle: saline with Tween-80
[3] = dose: 120.0 mg/kg/injection, schedule: Q01DX005 (ip), vehicle: saline with Tween-80
[4] = dose: 240.0 mg/kg/injection, schedule: Q01DX005 (ip), vehicle: saline with Tween-80
[5] = dose: 50.0 mg/kg/injection, schedule: Q01DX005 (ip), vehicle: saline with Tween-80
[6] = dose: 100.0 mg/kg/injection, schedule: Q01DX005 (ip), vehicle: saline with Tween-80
[7] = dose: 200.0 mg/kg/injection, schedule: Q01DX005 (ip), vehicle: saline with Tween-80
[8] = dose: 7.5 mg/kg/injection, schedule: Q01DX005 (ip), vehicle: saline with Tween-80
[9] = dose: 15.0 mg/kg/injection, schedule: Q01DX005 (ip), vehicle: saline with Tween-80
[10] = dose: 30.0 mg/kg/injection, schedule: Q01DX005 (ip), vehicle: saline with Tween-80
[11] = dose: 6.25 mg/kg/injection, schedule: Q01DX009 (ip), vehicle: saline
[12] = dose: 12.5 mg/kg/injection, schedule: Q01DX009 (ip), vehicle: saline
[13] = dose: 100.0 mg/kg/injection, schedule: Q01DX009 (ip), vehicle: saline
[14] = dose: 100.0 mg/kg/injection, schedule: Q04DX002 (ip), vehicle: saline with Tween-80
[15] = dose: 200.0 mg/kg/injection, schedule: Q04DX002 (ip), vehicle: saline with Tween-80

Measured: T/C

CCN(CC)c1ccc(C(=N)c2ccc(N(CC)CC)cc2)cc1
inactive: dose: 12.5 mg/kg/injection, schedule: Q01DX005 (ip), vehicle: Klucel (hydroxypropylcellulose) (HPC) 101 % of control | dose: 25.0 mg/kg/injection, schedule: Q01DX005 (ip), vehicle: Klucel (hydroxypropylcellulose) (HPC) 99 % of control | [1] 89 % of control and 90 % of control

CN1CCN(Cc2ccc(Nc3ccccc3)cc2)CC1
inactive: dose: 60.0 mg/kg/injection, schedule: Q01DX005 (ip), vehicle: Klucel (hydroxypropylcellulose) (HPC) 105 % of control | dose: 120.0 mg/kg/injection, schedule: Q01DX005 (ip), vehicle: Klucel (hydroxypropylcellulose) (HPC) 108 % of control | dose: 240.0 mg/kg/injection, schedule: Q01DX005 (ip), vehicle: Klucel (hydroxypropylcellulose) (HPC) 98 % of control

Cc1ccc(S(=O)(=O)N/N=C/c2c(Cl)n(C(=O)c3cccc(C)c3)c3ccccc23)cc1
inactive: dose: 50.0 mg/kg/injection, schedule: Q01DX001 (ip), vehicle: Klucel (hydroxypropylcellulose) (HPC) 97 % of control | dose: 100.0 mg/kg/injection, schedule: Q01DX001 (ip), vehicle: Klucel (hydroxypropylcellulose) (HPC) 90 % of control | dose: 200.0 mg/kg/injection, schedule: Q01DX001 (ip), vehicle: Klucel (hydroxypropylcellulose) (HPC) 87 % of control

OCC1OC2C(NC(=S)N2c2ccccc2)C(O)C1O (centres undefined)
inactive: [2] 101 % of control | [3] 98 % of control | [4] 104 % of control

N/N=C1/C(=O)N(c2ccc(S(N)(=O)=O)cc2)C(=O)C1C(=O)Nc1ccc(S(N)(=O)=O)cc1 (centres undefined)
inactive: [2] 114 % of control | [3] 101 % of control | [4] 106 % of control

C(=C\c1cc(-c2cc(/C=C/c3ccccc3)[nH]n2)n[nH]1)/c1ccccc1
inactive: [2] 100 % of control | [3] 99 % of control

CC(=O)CSCP(=O)(c1ccccc1)c1ccccc1
inactive: [5] 100 % of control | [6] 99 % of control | [7] 99 % of control

CCOc1c(Cc2ccccc2)c(=O)n2c3ccccc3n(CC)c2c1C#N
inactive: [8] 100 % of control | [9] 102 % of control | [10] 101 % of control

[Cl][Hg][c]1cccc(I)c1N=Nc1ccccc1
inactive: dose: 2.5 mg/kg/injection, schedule: Q01DX009 (ip), vehicle: saline + alcohol 104 % of control | dose: 5.0 mg/kg/injection, schedule: Q01DX009 (ip), vehicle: saline + alcohol 94 % of control

CCC(C)C(N)C(=O)O (centres undefined)
inactive: dose: 50.0 mg/kg/injection, schedule: Q01DX009 (ip), vehicle: Klucel (hydroxypropylcellulose) (HPC) 109 % of control | dose: 100.0 mg/kg/injection, schedule: Q01DX009 (ip), vehicle: Klucel (hydroxypropylcellulose) (HPC) 94 % of control | dose: 200.0 mg/kg/injection, schedule: Q01DX009 (ip), vehicle: Klucel (hydroxypropylcellulose) (HPC) 105 % of control

CCOC(=O)CN=C(c1ccccc1)c1ccccc1
inactive: [11] 105 % of control | [12] 105 % of control | dose: 25.0 mg/kg/injection, schedule: Q01DX009 (ip), vehicle: saline 105 % of control | [13] 89 % of control

O=C(O)C(O)C(O)C1[O][Sb][O]C1C(=O)O (centres undefined)
inactive: dose: 12.5 mg/kg/injection, schedule: Q01DX005 (ip), vehicle: saline 110 % of control | [5] 100 % of control and 101 % of control and 94 % of control | [6] 100 % of control and 108 % of control and 109 % of control | [7] 111 % of control and 117 % of control | dose: 400.0 mg/kg/injection, schedule: Q01DX005 (ip), vehicle: saline with Tween-80 118 % of control and 120 % of control

O=Cc1cc(/C=N/Nc2ccccc2C(=O)O)nc2[nH]c(=O)ccc12
inactive: dose: 100.0 mg/kg/injection, schedule: Q04DX002 (ip), vehicle: Klucel (hydroxypropylcellulose) (HPC) 107 % of control | dose: 200.0 mg/kg/injection, schedule: Q04DX002 (ip), vehicle: Klucel (hydroxypropylcellulose) (HPC) 102 % of control | dose: 400.0 mg/kg/injection, schedule: Q04DX002 (ip), vehicle: Klucel (hydroxypropylcellulose) (HPC) 101 % of control

CC1(c2ccccc2)NC(=O)N(CC(=O)N(c2ccccc2)c2ccccc2)C1=O (centres undefined)
inactive: [8] 91 % of control | [9] 92 % of control | [10] 92 % of control and 93 % of control | [2] 87 % of control and 88 % of control | [3] 86 % of control | [4] 94 % of control

C=C1CCOC1=O
inactive: dose: 50.0 mg/kg/injection, schedule: Q04DX002 (ip), vehicle: saline with Tween-80 97 % of control | [14] 105 % of control | [15] 105 % of control

O=C1N(Cc2ccccc2)CCN1Cc1ccccc1
inactive: [1] 95 % of control | dose: 100.0 mg/kg/injection, schedule: Q01DX005 (ip), vehicle: Klucel (hydroxypropylcellulose) (HPC) 94 % of control | dose: 200.0 mg/kg/injection, schedule: Q01DX005 (ip), vehicle: Klucel (hydroxypropylcellulose) (HPC) 104 % of control

CC(=O)c1ccc2c(c1)N(CCCN(C)C)c1ccccc1S2
inactive: dose: 3.12 mg/kg/injection, schedule: Q01DX009 (ip), vehicle: saline 94 % of control and 97 % of control | [11] 93 % of control and 94 % of control | [12] 103 % of control and 93 % of control | dose: 50.0 mg/kg/injection, schedule: Q01DX009 (ip), vehicle: saline 101 % of control | [13] 116 % of control

CCOC(=O)C(NC(=O)OC(C)(C)C)C(C)C (centres undefined)
inactive: [5] 98 % of control | [6] 100 % of control | [7] 100 % of control

Nc1nsc(Cl)n1
inactive: dose: 25.0 mg/kg/injection, schedule: Q01DX001 (ip), vehicle: saline with Tween-80 97 % of control | dose: 50.0 mg/kg/injection, schedule: Q01DX001 (ip), vehicle: saline with Tween-80 106 % of control | dose: 100.0 mg/kg/injection, schedule: Q01DX001 (ip), vehicle: saline with Tween-80 99 % of control

Cc1cc2c3ccccc3[nH]c(=O)n2n1
inactive: dose: 50.0 mg/kg/injection, schedule: Q04DX003 (ip), vehicle: saline 101 % of control | dose: 100.0 mg/kg/injection, schedule: Q01DX009 (ip), vehicle: saline with Tween-80 100 % of control | dose: 100.0 mg/kg/injection, schedule: Q04DX003 (ip), vehicle: saline with Tween-80 110 % of control | dose: 100.0 mg/kg/injection, schedule: Q04DX003 (ip), vehicle: saline 101 % of control | dose: 200.0 mg/kg/injection, schedule: Q01DX009 (ip), vehicle: saline with Tween-80 110 % of control | dose: 200.0 mg/kg/injection, schedule: Q04DX003 (ip), vehicle: saline with Tween-80 120 % of control | dose: 200.0 mg/kg/injection, schedule: Q04DX003 (ip), vehicle: saline 105 % of control | dose: 400.0 mg/kg/injection, schedule: Q04DX003 (ip), vehicle: saline with Tween-80 100 % of control | dose: 400.0 mg/kg/injection, schedule: Q04DX003 (ip), vehicle: saline 98 % of control

O=S(=O)(O)O.[Cu+2].[NH-]CCCCC[NH-].[NH-]CCCCC[NH-]
inactive: dose: 1.56 mg/kg/injection, schedule: Q04DX002 (ip), vehicle: Klucel (hydroxypropylcellulose) (HPC) 100 % of control | dose: 3.12 mg/kg/injection, schedule: Q04DX002 (ip), vehicle: Klucel (hydroxypropylcellulose) (HPC) 98 % of control | dose: 6.25 mg/kg/injection, schedule: Q04DX002 (ip), vehicle: Klucel (hydroxypropylcellulose) (HPC) 100 % of control | dose: 12.5 mg/kg/injection, schedule: Q04DX002 (ip), vehicle: Klucel (hydroxypropylcellulose) (HPC) 88 % of control and 98 % of control

NC(CCSCNc1ncnc2c1ncn2C1OC(CO)C(O)C1O)C(=O)O (centres undefined)
inactive: [14] 97 % of control | [15] 93 % of control | dose: 400.0 mg/kg/injection, schedule: Q04DX002 (ip), vehicle: saline with Tween-80 93 % of control
